“And” between values parts separate entries of the source, which are not always exact repeats. Equal values may be shown once.
Test: Oil Stability Index (OSI) induction time, AOCS Official Method Cd 12b-92, at 98° C.
Settings: for OSI induction time (h) of formulations based on single antioxidants: 250 ppm of antioxidant formulation (20% active antioxidant in the carrier of Formulation 1), soybean oil, replicates 1-3; for OSI induction time of soybean oil stabilized with synthetic antioxidants: single antioxidants directly dissolved in soybean oil, 98° C., control 14.8 h
Description: In order to evaluate the oxidative stability of an oil or fat sample an accelerated method is developed to speed up the oxidation process. […] This method is particularly suited to evaluate the effect of antioxidant stabilization of oils and fats.
Before oils and fats start to oxidize a resistance has to be overcome, after which the oxidation accelerates and becomes very rapid. The length of time before this rapid acceleration of oxidation is a measure of the resistance to oxidation and is commonly referred to as the ‘induction period’. In the Oil Stability Index (OSI method) the oxidative stability and the effect of antioxidant stabilization of oils and fats is determined. A stream of purified air is passed through a sample of oil, which is held in a thermostatic bath. In this experimental test the OSI was carried out at a temperature of 98° C. The effluent air from the oil or fat sample is then bubbled through a vessel containing deionized water. The conductivity of the water is continually monitored. The effluent air contains the volatile organic acids formed upon oxidizing the oil. The Oil Stability Index is defined as the point of maximum change of the rate of oxidation, or mathematically as the second derivative of the conductivity curve. As a consequence the induction point is a measure for the oxidative stability of the oil or fat system. The higher the induction point the higher the oxidative stability of the oil.

| OSI induction time of soybean oil stabilized with synthetic antioxidants (250 ppm) [h] | OSI induction time of soybean oil stabilized with synthetic antioxidants (500 ppm) [h] | OSI induction time of soybean oil stabilized with synthetic antioxidants (1000 ppm) [h] | Structure (SMILES) | OSI induction time (h) of formulations based on single antioxidants |
| --- | --- | --- | --- | --- |
| 35.8 | 44.5 | 53.1 | CCCOC(=O)c1cc(O)c(O)c(O)c1 [Propyl gallate, propyl gallate] | 19.5 h and 21.5 h and 20.1 h |
| 17.9 | 20 |  | Cc1cc(C(C)(C)C)c(O)c(C(C)(C)C)c1 [BHT, butylated hydroxyltoluene] | 15.5 h and 15.4 h and 15.0 h |
| 29.6 | 38.6 | 47.6 | CCCCCCCCOC(=O)c1cc(O)c(O)c(O)c1 [Octyl gallate, octyl gallate] | 19.3 h (2×) and 19.5 h |
| 30.6 | 41.8 | 47.4 | O=C(O)c1cc(O)c(O)c(O)c1 [Gallic acid, gallic acid] | 21.6 h and 20.7 h and 22.0 h |

| Structure (SMILES) | OSI induction time of soybean oil stabilized with synthetic antioxidants (250 ppm) [h] | OSI induction time of soybean oil stabilized with synthetic antioxidants (500 ppm) [h] | OSI induction time of soybean oil stabilized with synthetic antioxidants (1000 ppm) [h] | OSI induction time (h) of formulations based on single antioxidants |
| --- | --- | --- | --- | --- |
| COc1ccc(O)c(C(C)(C)C)c1 [BHA, butylated hydroxyanisole] | 14.0 | 15.5 | 21.5 | 14.0 h and 14.2 h and 14.5 h |

From US9725675B2, “Lipid-soluble formulations containing mixtures of antioxidants” (KEMIN INDUSTRIES, INC., priority 2003, dated 2017)
